Converted amounts (≈) assume the structure as drawn. Residues, ends and D or L forms follow the SMILES beside them. *: point of attachment. Palmitoyl = CCCCCCCCCCCCCCCC(=O)*
What was measured:
MRSA [1] = format: cell-based, methicillin-resistant S. aureus (MRSA, ATCC #43300); settings: 24 h
Procedure: This assay was performed to investigate the inhibitory effects of each peptide against Gram-positive Staphylococcus aureus (S. aureus, ATCC #25923) and methicillin-resistant S. aureus (MRSA, ATCC #43300), as well as Gram-negative Escherichia coli (E. coli, ATCC #25922), and multidrug-resistant E. coli (MDR E. coli, ATCC #BAA-2471). In all experiments, solutions of each peptide at the concentrations from 20 μM to 100 μM in 3% Tryptic Soy Broth (TSB) media were freshly prepared. A single colony of bacteria was isolated from a stock agar plate and cultured overnight in 4 mL of 3% TSB on a shaking incubator set at 200 rpm and 37° C. […] The bacteria were incubated inside a spectrophotometer (Spectra-Max Paradigm, Molecular Devices, Sunnyvale, CA) at 37° C. under static conditions for 20 h, and the bacterial growth curves were measured in terms of turbidity at OD562 every 2 minutes. The normalized OD562 values of samples were calculated by subtracting the […].
The minimum inhibitory concentration (MIC) of ACA-PA was tested against drug-resistant bacteria and compared with conventional penicillin-streptomycin (10,000 U/mL, Thermo Fisher Scientific, Waltham, MA, USA) as well. […] The OD562 was measured at the end of treatment. […]

MRSA [2] = assay: Bacterial growth inhibition (growth curves, OD562, 20 h); format: cell-based, methicillin-resistant S. aureus (MRSA, ATCC #43300)
Procedure: (§1) Gram-positive (S. aureus and MRSA) and Gram-negative (E. coli and MDR E. coli) bacteria were incubated with peptide concentrations ranging from 20 to 100 μM, and time-lapsed bacterial growth was monitored for 20 hours by determining the optical density at 562 nm (O.D. 562 nm). […] At the highest concentration tested (100 μM), the time to exponential growth phase of S. aurues was delayed by about 18 h (FIG. 5B), and was prolonged by almost 13 h for MRSA (FIG. 5A), while bacteria incubated without ACA-PA entered the exponential growth phase within 4 h. Gram-positive bacteria were also susceptible to the ACA-PA even below their CMC.
(§2) The MIC values of ACA-PA towards drug-resistant bacteria were determined after 24 h of incubation (Table 2).
(§3) This assay was performed to investigate the inhibitory effects of each peptide against Gram-positive Staphylococcus aureus (S. aureus, ATCC #25923) and methicillin-resistant S. aureus (MRSA, ATCC #43300), as well as Gram-negative Escherichia coli (E. coli, ATCC #25922), and multidrug-resistant E. coli (MDR E. coli, ATCC #BAA-2471). In all experiments, solutions of each peptide at the concentrations from 20 μM to 100 μM in 3% Tryptic Soy Broth (TSB) media were freshly prepared. A single colony of bacteria was isolated from a stock agar plate and cultured overnight in 4 mL of 3% TSB on a shaking incubator set at 200 rpm and 37° C. The bacteria culture was adjusted to an optical density at 562 nm (OD562) to about 0.52 (10^9 cells/mL), and the resulting bacteria suspension was subsequently diluted to about 10^6 colony forming units (CFU) per mL in each sample. The control samples were bacteria incubated in TSB media without peptides. The bacteria were incubated inside a spectrophotometer (Spectra-Max Paradigm, Molecular Devices, Sunnyvale, CA) at 37° C. under static conditions for 20 h, and the bacterial growth curves were measured in terms of turbidity at OD562 every 2 minutes. The normalized OD562 values of samples were calculated by subtracting the […].

E. coli [3] = assay: as above; format: cell-based, Escherichia coli (ATCC #25922)
Procedure: as §1, §2, §3

S. aureus = assay: Viable colony count assay (bactericidal effect, 4 h); format: cell-based, Staphylococcus aureus (ATCC #25923)
Procedure: (§4) The bactericidal effects of the peptides were examined using a viable colony count assay as well as the live/dead staining assay. For the viable colony count assay, bacteria were treated with peptides for 4 h and the resulting viable bacterial density of each sample was expressed by log10[CFU/mL]. For the Gram-positive bacteria tested, the decrease in bacterial density was dependent on the concentration of the ACA-PA (FIG. 8A). […] As for Gram-negative E. coli and MDR E. coli bacteria (FIG. 8B), the ACA nanorods, wherein the PA were added at a concentration above their CMC, had potent bactericidal effects. For example, the ACA nanorods at concentrations over 60 μM reduced the colony forming units of Gram-negative bacteria by about a five log unit reduction after 4 h compared with the untreated negative control sample.
(§5) The viable count assay was performed to quantify the bactericidal activity of each peptide. Stock solutions of peptides were diluted in 3% TSB media to concentrations ranging from 20 μM to 100 μM immediately before experiments. Heparin-ACA-PA were also prepared by mixing the ACA-PA stock solution with heparin (sodium salt from porcine intestinal mucosa, Sigma, St. Louis, MO) to 1:1, 1:2 and 1:3 weight ratios in water, and a final concentration of ACA-PA in the heparin-ACA-PA at each heparin weight ratio was adjusted to 80 μM for each experiment. The bacteria (10^6 CFU/mL) were incubated with peptides at 37° C. for 4 h. After incubation, serial dilutions of samples were plated on TSB agar and then incubated at 37° C. overnight. The colonies from each spot were manually counted, and the CFU number for each sample was determined. Experiments were conducted in triplicate and results were expressed as the log 10 values of the CFU number in each sample. Data were expressed by stand error of the mean (±S.E.M.) and N=3, *p<0.05 compared with control samples and #p<0.05 compared with bacteria treated with 40 μM of ACA-PA.

E. coli [4] = assay: as above; format: cell-based, Escherichia coli (ATCC #25922)
Procedure: as §4, §5

CCCCCCCCCCCCCCCC(=O)N[C@H](C(=O)N[C@H](C(=O)N[C@H](C(=O)N[C@H](C(=O)N[C@@H](CCCCN)C(=O)N[C@@H](CCCCN)C(=O)N[C@@H](CCCCN)C(=O)N[C@@H](CCCCN)C(=O)NCC(=O)N[C@@H](C)C(=O)N[C@@H](CCCCN)C(=O)N[C@@H](CCCCN)C(=O)N[C@@H](C)C(=O)N[C@@H](CCCNC(=N)N)C(=O)N[C@@H](C)C(=O)N[C@@H](C)C(=O)N[C@@H](CCCCN)C(=O)N[C@@H](CCCCN)C(=O)N[C@@H](C)C(=O)N[C@@H](CCCNC(=N)N)C(=O)N[C@@H](C)C(=O)O)C(C)C)C(C)C)C(C)C)C(C)C [ACA-PA, C16-V4K4G(AKKARA)2 (SEQ ID NO: 7)] (Palmitoyl-VVVVKKKKGAKKARAAKKARA-OH; N-terminus and C-terminus assumed)
Minimum inhibitory concentration (MIC) (MRSA [1]): 300 µg/mL (≈ 121 µM)
prolongation of time to exponential growth phase (MRSA [2]; 100 μM): ~13 h
bacterial growth inhibition (MRSA [2]; 20 to 100 μM, 20 h): remarkably inhibited the proliferation
susceptibility of bacterial growth (MRSA [2]; below the CMC): susceptible
bacterial growth inhibition (E. coli [3]; 20 to 100 μM, 20 h): remarkably inhibited the proliferation
bacterial proliferation (E. coli [3]; concentrations higher than the CMC (60 μM to 100 μM)): significantly suppressed
bacterial growth inhibition (E. coli [3]; concentrations lower than the CMC): did not significantly inhibit bacterial growth
decrease in bacteria density (S. aureus; S. aureus (Gram-positive), 60 to 100 μM): ~100 fold
decline in bacteria density (S. aureus; S. aureus, over 80 μM, 4 h): 100 fold
decrease of colony forming units (S. aureus; S. aureus, over 80 μM, 4 h): two
decrease in bacteria density (E. coli [4]; E. coli (Gram-negative), 60 to 100 μM): 10,000 fold
reduction in bacteria density (E. coli [4]; E. coli, concentrations lower than CMC, 4 h): no significant reduction in Gram-negative bacteria density
reduction of colony forming units (E. coli [4]; E. coli, over 60 μM, 4 h, vs untreated control): five

— US12319752B2, “Heparin-binding cationic peptide self-assembling peptide amphiphiles useful against drug-resistant bacteria” (priority 2016, dated 2025)
